The numbers were not newly measured in patent US20090223408A1, “Use of Sub-Micron Copper Salt Particles in Wood Preservation” (PhibroWood, LLC, priority 2004, published 2009), which cites them from elsewhere.

Read-outs that look alike come from different tables or passages of the source.

The conditions of data set [1]: baseline about 4 mg copper per liter.

For the compound `[OH][Cu][OH]` [copper hydroxide, copper(II) hydroxide], the Solubility of copper reads like this: (pH 4) 640 ppm; (pH 7) 2 ppm; (pH 10) “about 0.01 ppm”.

On to copper citrate, for which, in data set [1], the “leachate copper concentration relative to CCA baseline” value is recorded as “over fifteen times the baseline concentration”.
